Reference: patent US8017612B2, “Piperazine compound and use thereof as a HCV polymerase inhibitor” (priority 2006, dated 2011)
pIC50: −log10 of the molar value.

Tests used:
[1] = molecular target: T1, HCV polymerase (NS5B) type 1a (Hepatitis C virus genotype 1a, UniProt P26664); assay: Assay of enzyme (HCV polymerase) inhibitory activity, type 1a enzyme; assay type: biochemical, HCV type 1a (cloned from the blood of patients); conditions: HCV polymerase inhibitory activity IC50, 1a, type 1a enzyme
T1 construct: made in house; host or cells: Escherichia coli (by the 'similar method' of the 1b enzyme)
How it was run: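 Patient-derived type 1a NS5B (C-terminal 47-aa deletion, His-tagged, E. coli-expressed) at 1.5 μg/ml was reacted with 5 μg/ml 3′UTR-containing substrate RNA, 50 μM ATP/GTP/CTP, 2 μM UTP plus [3H]UTP, pH 7.5, 25° C for 60 min. TCA-precipitated RNA radioactivity was counted; IC50 from ± compound.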

[2] = molecular target: T2, HCV polymerase (NS5B) type 1b (Hepatitis C virus genotype 1b, UniProt P26663); assay: Assay of enzyme (HCV polymerase) inhibitory activity, type 1b enzyme; assay type: biochemical, HCV BK strain (type 1b); conditions: HCV polymerase inhibitory activity IC50, 1b, type 1b enzyme
T2 construct: a region encoding NS5B (J Virol 1991 March, 65(3), 1105-13, 544 amino acids after deletion of 47 amino acids on the C-terminal); 6xHis (C); made in house; host or cells: Escherichia coli
How it was run: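 NS5B from HCV BK strain (type 1b), C-terminal 47 aa deleted, C-terminal His6-tagged, E. coli-expressed, 0.5 μg/ml, with ~450 nt substrate RNA carrying the 3′ UTR (polyU, 3′X) at 5 μg/ml. Incubation 60 min at 25 °C with 50 μM ATP/GTP/CTP, 2 μM UTP plus [3H]UTP, pH 7.5 Tris.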

SMILES | pIC50 [1] | pIC50 [2]
O=C(NCc1ccc(-c2ccccn2)s1)[C@H]1CN(c2cnc3cncnc3n2)CCN1S(=O)(=O)c1ccc(OC(F)(F)F)cc1 [Example 730, (R)-4-pteridin-7-yl-1-(4-trifluoromethoxy-benzenesulfonyl)-piperazine-2-carboxylic acid (5-pyridin-2-yl-thiophen-2-ylmethyl)-amide] | > 7.00 | > 7.00
CCC(F)(F)c1ccc(CNC(=O)[C@H]2CN(c3cnc4cncnc4n3)CCN2S(=O)(=O)c2ccc(-c3ccccc3OCC(=O)O)cc2)cc1 [Example 731, (4′-{(R)-2-[4-(1,1-difluoro-propyl)-benzylcarbamoyl]-4-pteridin-7-yl-piperazine-1-sulfonyl}-biphenyl-2-yloxy)-acetic acid] | > 7.00 | > 7.00
CCC(F)(F)c1ccc(CNC(=O)[C@H]2CN(c3cnc4cncnc4n3)CCN2S(=O)(=O)c2ccc(-c3cccc(OCC(=O)O)c3)cc2)cc1 [Example 732, (4′-{(R)-2-[4-(1,1-difluoro-propyl)-benzylcarbamoyl]-4-pteridin-7-yl-piperazine-1-sulfonyl}-biphenyl-3-yloxy)-acetic acid] | > 7.00 | > 7.00
CCC(F)(F)c1ccc(CNC(=O)[C@H]2CN(C(=O)CNc3cccnc3)CCN2S(=O)(=O)c2ccc(OC(F)(F)F)cc2)cc1 [Example 733, (R)-4-[2-(pyridin-3-ylamino)-acetyl]-1-(4-trifluoromethoxy-benzenesulfonyl)-piperazine-2-carboxylic acid 4-(1,1-difluoro-propyl)-benzylamide] | 6.00 to 7.00 | 6.00 to 7.00
CCC(F)(F)c1ccc(CNC(=O)[C@H]2CN(C(=O)CNc3ccn(C)n3)CCN2S(=O)(=O)c2ccc(OC(F)(F)F)cc2)cc1 [Example 734, (R)-4-[2-(1-methyl-1H-pyrazol-3-ylamino)-acetyl]-1-(4-trifluoromethoxy-benzenesulfonyl)-piperazine-2-carboxylic acid 4-(1,1-difluoro-propyl)-benzylamide] | 6.00 to 7.00 | 6.00 to 7.00
CCC(F)(F)c1ccc(CNC(=O)[C@H]2CN(c3cnc4cnccc4n3)CCN2S(=O)(=O)c2ccc(C(F)(F)F)cc2)cc1 [Example 735, (R)-4-pyrido[3,4-b]pyrazin-2-yl-1-(4-trifluoromethyl-benzenesulfonyl)-piperazine-2-carboxylic acid 4-(1,1-difluoro-propyl)-benzylamide] | > 7.00 | > 7.00
CCC(F)(F)c1ccc(CNC(=O)[C@H]2CN(c3cnc4cnccc4n3)CCN2S(=O)(=O)c2ccc(N(C)C)cc2)cc1 [Example 736, (R)-1-(4-dimethylamino-benzenesulfonyl)-4-pyrido[3,4-b]pyrazin-2-yl-piperazine-2-carboxylic acid 4-(1,1-difluoro-propyl)-benzylamide] | > 7.00 | > 7.00
CCC(F)(F)c1ccc(CNC(=O)[C@H]2CN(c3cnc4cncnc4n3)CCN2S(=O)(=O)c2ccc(Br)s2)cc1 [Example 737, (R)-1-(5-bromo-thiophene-2-sulfonyl)-4-pteridin-7-yl-piperazine-2-carboxylic acid 4-(1,1-difluoro-propyl)-benzylamide] | > 7.00 | > 7.00
CCC(F)(F)c1ccc(CNC(=O)[C@H]2CN(c3cnc4cncnc4n3)CCN2S(=O)(=O)c2cc3ccccc3s2)cc1 [Example 738, (R)-1-(benzo[b]thiophene-2-sulfonyl)-4-pteridin-7-yl-piperazine-2-carboxylic acid 4-(1,1-difluoro-propyl)-benzylamide] | > 7.00 | > 7.00
CCC(F)(F)c1ccc(CNC(=O)[C@H]2CN(c3nc4cccnc4s3)CCN2S(=O)(=O)c2ccc(OC(F)(F)F)cc2)cc1 [Example 739, (R)-4-thiazolo[5,4-b]pyridin-2-yl-1-(4-trifluoromethoxy-benzenesulfonyl)-piperazine-2-carboxylic acid 4-(1,1-difluoro-propyl)-benzylamide] | > 7.00 | > 7.00
CCC(F)(F)c1ccc(CNC(=O)[C@H]2CN(c3ccc4cnccc4n3)CCN2S(=O)(=O)c2ccc(OC(F)(F)F)cc2)cc1 [Example 740, (R)-4-[1,6]naphthyridin-2-yl-1-(4-trifluoromethoxy-benzenesulfonyl)-piperazine-2-carboxylic acid 4-(1,1-difluoro-propyl)-benzylamide] | > 7.00 | > 7.00
CCC(F)(F)c1ccc(CNC(=O)[C@H]2CN(c3cnc4c(Cl)cccc4n3)CCN2S(=O)(=O)c2ccc(OC(F)(F)F)cc2)cc1 [Example 741, (R)-4-(5-chloro-quinoxalin-2-yl)-1-(4-trifluoromethoxy-benzenesulfonyl)-piperazine-2-carboxylic acid 4-(1,1-difluoro-propyl)-benzylamide] | 6.00 to 7.00 | > 7.00
CCC(F)(F)c1ccc(CNC(=O)[C@H]2CN(c3cnc4cccc(Cl)c4n3)CCN2S(=O)(=O)c2ccc(OC(F)(F)F)cc2)cc1 [Example 742, (R)-4-(8-chloro-quinoxalin-2-yl)-1-(4-trifluoromethoxy-benzenesulfonyl)-piperazine-2-carboxylic acid 4-(1,1-difluoro-propyl)-benzylamide] | 6.00 to 7.00 | > 7.00
CCC(F)(F)c1ccc(CNC(=O)[C@H]2CN(c3cnc4cnccc4n3)CCN2S(=O)(=O)c2ccc(N3CCCC3)cc2)cc1 [Example 743, (R)-4-pyrido[3,4-b]pyrazin-2-yl-1-(4-pyrrolidin-1-yl-benzenesulfonyl)-piperazine-2-carboxylic acid 4-(1,1-difluoro-propyl)-benzylamide] | > 7.00 | > 7.00
CCC(F)(F)c1ccc(CNC(=O)[C@H]2CN(c3cnc4cncnc4n3)CCN2S(=O)(=O)c2ccc([C@H]3CC[C@H](CC(=O)O)CC3)cc2)cc1 [Example 744, trans-[4-(4-{(R)-2-[4-(1,1-difluoro-propyl)-benzylcarbamoyl]-4-pteridin-7-yl-piperazine-1-sulfonyl}-phenyl)-cyclohexyl]-acetic acid] | > 7.00 | > 7.00
O=C(NCc1ccc(OC(F)(F)F)cc1)[C@H]1CN(c2cnc3cnccc3n2)CCN1S(=O)(=O)c1ccc(OC(F)(F)F)cc1 [Example 745, (R)-4-pyrido[3,4-b]pyrazin-2-yl-1-(4-trifluoromethoxy-benzenesulfonyl)-piperazine-2-carboxylic acid 4-trifluoromethoxy-benzylamide] | > 7.00 | > 7.00
CCC(F)(F)c1ccc(CNC(=O)[C@H]2CN(c3cnc4cnccc4n3)CCN2S(=O)(=O)c2ccc(N3CCOCC3)cc2)cc1 [Example 746, (R)-1-(4-morpholin-4-yl-benzenesulfonyl)-4-pyrido[3,4-b]pyrazin-2-yl-piperazine-2-carboxylic acid 4-(1,1-difluoro-propyl)-benzylamide] | > 7.00 | > 7.00
CCC(F)(F)c1ccc(CNC(=O)[C@H]2CN(c3cnc4cncnc4n3)CCN2S(=O)(=O)c2ccc(OC)cc2)cc1 [Example 747, (R)-1-(4-methoxy-benzenesulfonyl)-4-pteridin-7-yl-piperazine-2-carboxylic acid 4-(1,1-difluoro-propyl)-benzylamide] | > 7.00 | > 7.00
CCC(F)(F)c1ccc(CNC(=O)[C@H]2CN(c3ccc4nccnc4n3)CCN2S(=O)(=O)c2ccc(OC(F)(F)F)cc2)cc1 [Example 748, (R)-4-pyrido[2,3-b]pyrazin-6-yl-1-(4-trifluoromethoxy-benzenesulfonyl)-piperazine-2-carboxylic acid 4-(1,1-difluoro-propyl)-benzylamide] | > 7.00 | > 7.00
O=C(NCc1ccc(OC(F)(F)F)cc1)[C@H]1CN(c2cnc3nccnc3n2)CCN1S(=O)(=O)c1ccc(OC(F)(F)F)cc1 [Example 749, (R)-4-pyrazino[2,3-b]pyrazin-2-yl-1-(4-trifluoromethoxy-benzenesulfonyl)-piperazine-2-carboxylic acid 4-trifluoromethoxy-benzylamide] | > 7.00 | > 7.00
O=C(NCc1ccc(OC(F)(F)F)cc1)[C@H]1CN(c2ccn3ncnc3n2)CCN1S(=O)(=O)c1ccc(OC(F)(F)F)cc1 [Example 750, (R)-4-[1,2,4]triazolo[1,5-a]pyrimidin-5-yl-1-(4-trifluoromethoxy-benzenesulfonyl)-piperazine-2-carboxylic acid 4-trifluoromethoxy-benzylamide] | > 7.00 | > 7.00
CCC(F)(F)c1ccc(CNC(=O)[C@H]2CN(c3cnc4cnccc4n3)CCN2S(=O)(=O)c2ccc(N3CCCC3=O)cc2)cc1 [Example 751, (R)-1-[4-(2-oxo-pyrrolidin-1-yl)-benzenesulfonyl]-4-pyrido[3,4-b]pyrazin-2-yl-piperazine-2-carboxylic acid 4-(1,1-difluoro-propyl)-benzylamide] | > 7.00 | > 7.00
O=C(NCc1ccc(OC(F)(F)F)cc1)[C@H]1CN(c2cnc3cnccc3n2)CCN1S(=O)(=O)c1ccc(Cl)cc1 [Example 752, (R)-1-(4-chloro-benzenesulfonyl)-4-pyrido[3,4-b]pyrazin-2-yl-piperazine-2-carboxylic acid 4-trifluoromethoxy-benzylamide] | > 7.00 | > 7.00
